Data taken from ChEMBL document CHEMBL1201862, “PubChem BioAssay data set” (2004).
Values belong to the molecule of their own block, whether it stands above or below them. Calls of active or inactive are those of the source.

What was measured:
[1] = biological target: Beta-2 adrenergic receptor (Homo sapiens, UniProt P07550); test: ADRB2 activation measured by internalization – cell-based, FAP fluorogen, flow cytometry, cherry pick 1, dose response (AID 588763); type: functional
Ephrin type-A receptor 4 = Ephrin type-A receptor 4 (Mus musculus, UniProt Q03137); test: EphA4 ligand-binding antagonists – biochemical, colorimetric, mouse EphA4, primary screen (AID 689); type: functional
Cytochrome P450 2C19 = Cytochrome P450 2C19 (Homo sapiens, UniProt P33261); test: Cytochrome panel assay with activity outcomes. Panel member name: p450-cyp2c19 Compounds with AC50 equal or less than 10 uM are considered active; type: functional; settings: read-out: AC50
Cytochrome P450 3A4 = Cytochrome P450 3A4 (Homo sapiens, UniProt P08684);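 also: CYP3A4 tested as one member of a cytochrome P450 panel screen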
Cytochrome P450 2D6 = Cytochrome P450 2D6 (Homo sapiens, UniProt P10635);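 also: CYP2D6 member of a cytochrome P450 panel assay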
Chain of Cytochrome P450 2D6 (P10635 whole entry): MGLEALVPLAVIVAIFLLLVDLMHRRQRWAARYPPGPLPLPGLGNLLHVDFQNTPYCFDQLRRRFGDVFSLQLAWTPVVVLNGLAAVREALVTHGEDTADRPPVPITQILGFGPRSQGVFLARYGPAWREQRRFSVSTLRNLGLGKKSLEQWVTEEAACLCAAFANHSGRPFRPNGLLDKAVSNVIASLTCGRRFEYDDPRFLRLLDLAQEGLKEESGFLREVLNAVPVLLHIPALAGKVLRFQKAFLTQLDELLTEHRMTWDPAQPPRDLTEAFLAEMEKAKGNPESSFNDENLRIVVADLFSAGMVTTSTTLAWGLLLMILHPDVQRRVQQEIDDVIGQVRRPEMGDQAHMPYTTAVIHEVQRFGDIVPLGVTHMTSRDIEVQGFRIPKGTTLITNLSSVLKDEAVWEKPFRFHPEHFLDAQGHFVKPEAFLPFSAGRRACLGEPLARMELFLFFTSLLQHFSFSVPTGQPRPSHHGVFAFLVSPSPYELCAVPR

[2] = biological target: Peroxisome proliferator-activated receptor gamma/Nuclear receptor coactivator 1 (Homo sapiens, UniProt P37231); test: (§1) TR-FRET dose response biochemical High Throughput Screening assay for agonists of the steroid receptor coactivator 1 (SRC-1) recruitment by the peroxisome proliferator-activated receptor gamma (PPAR gamma): non-selective agonists. [Related pubchem assays (depositor defined):AID1300, AID1808, AID504735, AID631]; type: protein assay
Chain of Peroxisome proliferator-activated receptor gamma/Nuclear receptor coactivator 1 (P37231 whole entry): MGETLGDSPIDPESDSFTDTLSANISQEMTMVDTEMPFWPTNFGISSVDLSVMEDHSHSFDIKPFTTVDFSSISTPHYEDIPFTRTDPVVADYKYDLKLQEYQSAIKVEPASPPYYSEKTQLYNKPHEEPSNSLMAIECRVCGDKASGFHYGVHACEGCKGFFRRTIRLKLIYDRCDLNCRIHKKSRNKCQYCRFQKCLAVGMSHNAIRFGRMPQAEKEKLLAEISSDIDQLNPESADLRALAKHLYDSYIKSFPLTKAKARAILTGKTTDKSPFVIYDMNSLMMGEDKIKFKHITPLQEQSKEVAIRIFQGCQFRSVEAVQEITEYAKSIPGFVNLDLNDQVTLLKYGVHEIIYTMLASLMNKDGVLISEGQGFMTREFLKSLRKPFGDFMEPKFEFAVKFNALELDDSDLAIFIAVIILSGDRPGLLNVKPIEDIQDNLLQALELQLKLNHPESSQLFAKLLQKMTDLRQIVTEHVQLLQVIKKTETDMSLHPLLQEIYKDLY
Chain of Peroxisome proliferator-activated receptor gamma/Nuclear receptor coactivator 1 (Q15788 whole entry, further chain): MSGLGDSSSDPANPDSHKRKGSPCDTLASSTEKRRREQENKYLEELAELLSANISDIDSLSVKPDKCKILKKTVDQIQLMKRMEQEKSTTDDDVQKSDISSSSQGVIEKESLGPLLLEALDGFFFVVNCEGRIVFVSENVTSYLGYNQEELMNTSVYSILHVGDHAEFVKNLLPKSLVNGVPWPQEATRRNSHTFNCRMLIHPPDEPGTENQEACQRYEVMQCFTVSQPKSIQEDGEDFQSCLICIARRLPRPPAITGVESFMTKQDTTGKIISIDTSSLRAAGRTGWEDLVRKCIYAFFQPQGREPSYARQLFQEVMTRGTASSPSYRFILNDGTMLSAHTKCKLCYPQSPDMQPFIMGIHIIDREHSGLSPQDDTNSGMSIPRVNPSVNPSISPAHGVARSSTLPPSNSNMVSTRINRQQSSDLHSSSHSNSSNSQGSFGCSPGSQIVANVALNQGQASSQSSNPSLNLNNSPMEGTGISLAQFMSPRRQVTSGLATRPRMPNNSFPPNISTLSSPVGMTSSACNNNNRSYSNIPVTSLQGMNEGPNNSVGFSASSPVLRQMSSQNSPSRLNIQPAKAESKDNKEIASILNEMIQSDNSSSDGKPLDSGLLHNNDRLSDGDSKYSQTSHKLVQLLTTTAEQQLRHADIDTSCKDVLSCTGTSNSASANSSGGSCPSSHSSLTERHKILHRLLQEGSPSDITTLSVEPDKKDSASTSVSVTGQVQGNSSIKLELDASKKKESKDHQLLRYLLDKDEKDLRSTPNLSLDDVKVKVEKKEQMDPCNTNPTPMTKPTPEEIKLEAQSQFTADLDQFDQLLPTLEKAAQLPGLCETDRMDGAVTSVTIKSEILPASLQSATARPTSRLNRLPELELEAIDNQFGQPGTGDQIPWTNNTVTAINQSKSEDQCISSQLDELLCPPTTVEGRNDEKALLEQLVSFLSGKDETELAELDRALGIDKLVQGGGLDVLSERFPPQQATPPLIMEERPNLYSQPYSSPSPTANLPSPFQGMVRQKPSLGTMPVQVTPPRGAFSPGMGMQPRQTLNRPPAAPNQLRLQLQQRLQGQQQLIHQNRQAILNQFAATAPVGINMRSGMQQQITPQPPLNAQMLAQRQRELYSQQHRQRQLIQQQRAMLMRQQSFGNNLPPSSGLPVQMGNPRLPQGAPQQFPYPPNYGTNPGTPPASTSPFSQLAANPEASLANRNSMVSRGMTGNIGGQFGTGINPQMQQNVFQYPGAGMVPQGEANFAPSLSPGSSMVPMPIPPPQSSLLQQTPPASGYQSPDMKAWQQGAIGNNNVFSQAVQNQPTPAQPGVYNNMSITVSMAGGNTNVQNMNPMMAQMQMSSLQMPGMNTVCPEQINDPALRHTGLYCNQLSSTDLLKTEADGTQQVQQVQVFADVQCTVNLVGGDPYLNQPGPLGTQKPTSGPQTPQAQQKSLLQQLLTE

[3] = biological target: Peroxisome proliferator-activated receptor gamma/Nuclear receptor coactivator 3 (Homo sapiens, UniProt P37231); test: as §1, with “3 (SRC-3)” for “1 (SRC-1)”, “assays: 1301 (Confirmation screen.), 1048 (Primary screen.)]” for “assays (depositor defined):AID1300, AID1808, AID504735, AID631]”; type: functional
Chain of Peroxisome proliferator-activated receptor gamma/Nuclear receptor coactivator 3 (P37231 whole entry): as the sequence (P37231 whole entry) above
Chain of Peroxisome proliferator-activated receptor gamma/Nuclear receptor coactivator 3 (Q9Y6Q9 whole entry, further chain): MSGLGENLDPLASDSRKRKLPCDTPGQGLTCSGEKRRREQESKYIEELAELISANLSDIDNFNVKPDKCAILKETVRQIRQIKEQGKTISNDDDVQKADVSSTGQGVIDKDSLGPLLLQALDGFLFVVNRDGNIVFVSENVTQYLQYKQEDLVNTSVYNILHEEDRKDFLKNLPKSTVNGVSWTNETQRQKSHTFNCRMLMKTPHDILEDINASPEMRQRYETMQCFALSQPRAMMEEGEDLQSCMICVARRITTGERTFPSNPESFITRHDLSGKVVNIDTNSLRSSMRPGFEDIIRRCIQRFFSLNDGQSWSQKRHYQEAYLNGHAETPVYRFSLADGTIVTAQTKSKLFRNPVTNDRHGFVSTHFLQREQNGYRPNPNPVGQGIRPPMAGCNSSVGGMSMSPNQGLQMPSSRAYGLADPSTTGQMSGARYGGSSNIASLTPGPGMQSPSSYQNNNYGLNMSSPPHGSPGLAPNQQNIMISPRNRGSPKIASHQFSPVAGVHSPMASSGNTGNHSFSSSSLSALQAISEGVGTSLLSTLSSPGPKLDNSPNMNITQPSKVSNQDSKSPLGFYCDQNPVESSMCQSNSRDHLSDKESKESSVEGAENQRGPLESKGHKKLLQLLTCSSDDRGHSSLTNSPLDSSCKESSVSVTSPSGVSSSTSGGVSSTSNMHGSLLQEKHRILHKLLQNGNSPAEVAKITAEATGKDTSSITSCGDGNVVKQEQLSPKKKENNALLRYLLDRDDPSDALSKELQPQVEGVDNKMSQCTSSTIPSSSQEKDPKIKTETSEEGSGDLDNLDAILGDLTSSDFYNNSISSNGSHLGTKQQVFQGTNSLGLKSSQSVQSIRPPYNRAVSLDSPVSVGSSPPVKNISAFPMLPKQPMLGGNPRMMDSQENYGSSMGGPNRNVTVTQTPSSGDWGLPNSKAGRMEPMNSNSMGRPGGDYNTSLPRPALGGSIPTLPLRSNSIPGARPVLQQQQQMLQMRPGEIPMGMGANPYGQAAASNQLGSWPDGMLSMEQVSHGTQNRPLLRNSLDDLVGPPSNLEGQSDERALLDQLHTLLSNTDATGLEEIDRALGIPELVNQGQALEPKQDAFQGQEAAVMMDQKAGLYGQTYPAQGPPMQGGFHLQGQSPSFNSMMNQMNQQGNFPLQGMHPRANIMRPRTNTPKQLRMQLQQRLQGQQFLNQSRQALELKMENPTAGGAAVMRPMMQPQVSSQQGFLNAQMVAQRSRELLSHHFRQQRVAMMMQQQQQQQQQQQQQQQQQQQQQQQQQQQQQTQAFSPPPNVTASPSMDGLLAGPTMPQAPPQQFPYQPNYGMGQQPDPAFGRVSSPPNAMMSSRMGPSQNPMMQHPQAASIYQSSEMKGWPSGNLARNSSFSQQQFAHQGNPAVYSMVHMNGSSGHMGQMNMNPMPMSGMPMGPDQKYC

[4] = biological target: Peroxisome proliferator-activated receptor gamma/Nuclear receptor coactivator 2 (Homo sapiens, UniProt P37231); test: TR-FRET dose response biochemical High Throughput Screening assay for agonists of the steroid receptor coactivator 2 (SRC-2) recruitment by the peroxisome proliferator-activated receptor gamma (PPAR gamma): non-selective agonists. [Related pubchem assays: 1297, 1032 ]; type: functional
[5] = biological target: T1, Heat shock factor protein 1 (Mus musculus, UniProt P38532); test: enhancement of HSF1-driven luciferase signal – cell-based, NIH3T3, luminescence, dose retest, confirmation (AID 435004); type: functional;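 also: stress induced by proteasome inhibitor MG132 added 30 min after compound; luciferase reporter driven by HSF1 response element in NIH3T3 cells; actives raise luminescence as potentiators of the MG132 stress response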
T1 sequence (P38532 whole entry): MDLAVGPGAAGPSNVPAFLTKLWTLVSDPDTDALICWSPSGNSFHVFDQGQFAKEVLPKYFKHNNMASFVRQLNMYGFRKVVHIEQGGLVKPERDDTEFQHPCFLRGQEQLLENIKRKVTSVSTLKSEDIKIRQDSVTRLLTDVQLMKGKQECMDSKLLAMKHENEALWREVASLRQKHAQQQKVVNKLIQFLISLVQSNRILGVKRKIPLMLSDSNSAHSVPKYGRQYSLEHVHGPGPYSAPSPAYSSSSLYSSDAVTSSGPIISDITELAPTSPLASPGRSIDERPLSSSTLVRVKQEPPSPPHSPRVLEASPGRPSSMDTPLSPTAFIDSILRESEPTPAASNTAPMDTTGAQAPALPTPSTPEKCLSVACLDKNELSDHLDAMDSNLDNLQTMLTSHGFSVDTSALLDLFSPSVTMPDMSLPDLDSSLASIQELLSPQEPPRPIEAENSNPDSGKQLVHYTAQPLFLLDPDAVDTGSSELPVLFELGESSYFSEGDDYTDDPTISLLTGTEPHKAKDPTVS

Escherichia coli [6] = test: microbe, parasite or virus in culture
Escherichia coli [7] = test: microbe, parasite or virus in culture; remark: listed apart in the source
Trypsin = Trypsin (Sus scrofa, UniProt P00761); test: trypsin protease activity blockade – biochemical, quenched peptide fluorescence, cherry-pick, selectivity assay for Rce1 protease inhibitor project, dose response (AID 488789)
Chain of Trypsin (P00761 whole entry): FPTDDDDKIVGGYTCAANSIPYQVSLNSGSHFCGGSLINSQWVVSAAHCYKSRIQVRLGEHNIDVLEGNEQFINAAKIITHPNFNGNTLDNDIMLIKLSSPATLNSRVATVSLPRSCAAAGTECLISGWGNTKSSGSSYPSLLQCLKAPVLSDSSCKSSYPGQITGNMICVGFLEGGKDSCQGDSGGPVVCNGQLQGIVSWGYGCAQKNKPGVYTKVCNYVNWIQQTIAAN

CAAX prenyl protease 2 = CAAX prenyl protease 2 (Homo sapiens, UniProt Q9Y256); test: inhibition of Ras-converting CAAX protease Rce1 – biochemical, yeast membranes, quenched-peptide fluorescence, cherry-pick, dose response (AID 588849)
Tumor necrosis factor = Tumor necrosis factor (Homo sapiens, UniProt P01375); test: analog potency on TNFa NF-kB signaling – cell-based, revised, SAR follow-up (AID 2337); type: functional
HEK293 = test: cells; settings: Homo sapiens;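 also: cells exposed to compound for 14 hours overnight before viability readout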
[8] = biological target: Dual specificity tyrosine-phosphorylation-regulated kinase 1A (Rattus norvegicus, UniProt Q63470); type: biochemical, Homo sapiens
[9] = biological target: T2, Sentrin-specific protease 8 (Homo sapiens, UniProt Q96LD8); test: inhibition of human SENP8 cleavage activity – biochemical, luminescence, SAR follow-up (AID 504501); type: functional
T2 sequence (Q96LD8 whole entry): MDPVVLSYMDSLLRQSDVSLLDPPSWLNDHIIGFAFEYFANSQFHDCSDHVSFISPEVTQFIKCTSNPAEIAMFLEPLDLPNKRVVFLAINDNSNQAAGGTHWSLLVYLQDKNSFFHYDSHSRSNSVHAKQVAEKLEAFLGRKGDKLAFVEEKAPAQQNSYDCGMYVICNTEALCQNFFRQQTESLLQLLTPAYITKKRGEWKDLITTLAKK

Caspase-3 = biological target: T3, Caspase-3 (Homo sapiens, UniProt P42574); test: SAR Analysis of small molecule inhibitors of Sentrin-specific proteases (SENPs) using a Caspase-3 Selectivity assay. [Related pubchem assays (depositor defined):AID2540, AID2599, AID434973, AID489001]; type: functional
T3 sequence (P42574 whole entry): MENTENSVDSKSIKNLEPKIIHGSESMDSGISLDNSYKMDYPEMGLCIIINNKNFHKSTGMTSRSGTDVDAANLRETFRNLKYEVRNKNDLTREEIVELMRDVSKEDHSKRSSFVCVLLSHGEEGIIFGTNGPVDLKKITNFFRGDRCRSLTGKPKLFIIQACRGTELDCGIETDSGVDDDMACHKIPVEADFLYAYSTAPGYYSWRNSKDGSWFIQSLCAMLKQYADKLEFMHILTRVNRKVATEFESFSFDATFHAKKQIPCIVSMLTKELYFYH

[10] = biological target: T4, Sentrin-specific protease 6 (Homo sapiens, UniProt Q9GZR1); test: SAR Analysis of small molecule inhibitors of Sentrin-specific protease 6 (SENP6) using a Luminescent assay. [Related pubchem assays (depositor defined):AID2582, AID2599]; type: functional
T4 sequence (Q9GZR1 whole entry): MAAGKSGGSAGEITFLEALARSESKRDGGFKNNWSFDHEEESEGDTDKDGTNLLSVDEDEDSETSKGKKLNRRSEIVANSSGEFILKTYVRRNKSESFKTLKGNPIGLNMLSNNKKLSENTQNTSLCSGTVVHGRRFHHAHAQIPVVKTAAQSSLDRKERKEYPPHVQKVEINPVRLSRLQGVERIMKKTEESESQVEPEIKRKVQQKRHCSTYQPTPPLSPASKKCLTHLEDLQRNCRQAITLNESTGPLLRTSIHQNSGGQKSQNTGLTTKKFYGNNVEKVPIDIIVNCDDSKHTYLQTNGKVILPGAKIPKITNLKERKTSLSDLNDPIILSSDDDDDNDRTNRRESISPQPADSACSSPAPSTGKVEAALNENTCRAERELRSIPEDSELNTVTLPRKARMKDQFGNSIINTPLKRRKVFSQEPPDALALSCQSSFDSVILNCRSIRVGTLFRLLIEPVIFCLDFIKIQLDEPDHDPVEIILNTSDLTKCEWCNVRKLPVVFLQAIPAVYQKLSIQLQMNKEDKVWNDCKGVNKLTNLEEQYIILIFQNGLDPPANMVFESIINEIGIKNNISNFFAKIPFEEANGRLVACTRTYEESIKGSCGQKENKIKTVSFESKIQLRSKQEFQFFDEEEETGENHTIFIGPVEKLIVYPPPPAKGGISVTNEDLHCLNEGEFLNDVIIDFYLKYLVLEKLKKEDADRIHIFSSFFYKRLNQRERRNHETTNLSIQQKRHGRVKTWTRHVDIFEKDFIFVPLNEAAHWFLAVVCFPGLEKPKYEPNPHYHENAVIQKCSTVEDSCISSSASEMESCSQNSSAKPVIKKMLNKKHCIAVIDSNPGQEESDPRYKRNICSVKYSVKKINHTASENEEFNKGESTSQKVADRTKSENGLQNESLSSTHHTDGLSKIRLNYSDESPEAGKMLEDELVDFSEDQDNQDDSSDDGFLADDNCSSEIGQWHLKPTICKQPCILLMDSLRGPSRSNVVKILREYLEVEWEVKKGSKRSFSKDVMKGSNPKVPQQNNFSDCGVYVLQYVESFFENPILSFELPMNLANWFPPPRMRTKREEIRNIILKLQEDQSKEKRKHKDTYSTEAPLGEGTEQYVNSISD

[11] = biological target: T5, Sentrin-specific protease 7 (Homo sapiens, UniProt Q9BQF6); test: inhibition of human SENP7 cleavage activity – biochemical, luminescence, SAR follow-up (AID 504497); type: functional
T5 sequence (Q9BQF6 whole entry): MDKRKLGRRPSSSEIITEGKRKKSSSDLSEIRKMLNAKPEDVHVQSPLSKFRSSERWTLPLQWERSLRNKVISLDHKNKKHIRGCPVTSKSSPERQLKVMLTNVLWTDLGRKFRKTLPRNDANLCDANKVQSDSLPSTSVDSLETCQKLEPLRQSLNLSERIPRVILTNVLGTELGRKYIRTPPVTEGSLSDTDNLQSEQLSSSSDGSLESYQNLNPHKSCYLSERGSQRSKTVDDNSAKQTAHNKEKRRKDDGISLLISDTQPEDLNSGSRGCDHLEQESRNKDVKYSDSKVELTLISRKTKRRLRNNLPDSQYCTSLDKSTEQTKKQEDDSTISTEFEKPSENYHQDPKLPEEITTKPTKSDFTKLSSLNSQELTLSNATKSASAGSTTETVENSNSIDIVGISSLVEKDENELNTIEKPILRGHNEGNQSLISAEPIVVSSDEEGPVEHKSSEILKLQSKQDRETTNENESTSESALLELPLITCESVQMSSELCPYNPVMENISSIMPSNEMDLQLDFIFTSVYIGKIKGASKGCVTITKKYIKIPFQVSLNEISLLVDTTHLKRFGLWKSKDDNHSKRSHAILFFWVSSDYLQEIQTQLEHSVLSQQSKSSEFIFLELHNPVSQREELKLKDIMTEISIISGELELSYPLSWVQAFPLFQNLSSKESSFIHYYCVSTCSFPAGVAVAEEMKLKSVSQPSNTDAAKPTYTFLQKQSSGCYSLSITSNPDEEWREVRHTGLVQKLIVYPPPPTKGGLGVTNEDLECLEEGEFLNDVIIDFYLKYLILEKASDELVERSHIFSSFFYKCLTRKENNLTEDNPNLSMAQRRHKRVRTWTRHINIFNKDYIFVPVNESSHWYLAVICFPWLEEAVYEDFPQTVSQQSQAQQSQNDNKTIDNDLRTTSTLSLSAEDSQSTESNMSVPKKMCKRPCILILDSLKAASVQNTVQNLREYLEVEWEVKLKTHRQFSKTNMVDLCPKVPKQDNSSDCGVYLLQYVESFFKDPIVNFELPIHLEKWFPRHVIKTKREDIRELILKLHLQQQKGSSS

Exodeoxyribonuclease V = Exodeoxyribonuclease V (Escherichia coli (strain K12), UniProt P04993+P07648+P08394); test: RecBCD inhibition via phage-restricted bacterial growth – absorbance, V66 E. coli, mutant T4 phage, counter-screen for AddAB inhibitor project, dose response (AID 492957); type: functional, cell-based, Escherichia coli str. K-12 substr. MG1655
[12] = Counterscreen for AddAB inhibitors: absorbance-based bacterial cell-based high throughput dose response assay for inhibitors of bacterial viability. [Related pubchem assays (depositor defined):AID435030, AID449728, AID449731, AID488942, AID488955, AID488956]; type: functional

Chain of Beta-2 adrenergic receptor (P07550 whole entry): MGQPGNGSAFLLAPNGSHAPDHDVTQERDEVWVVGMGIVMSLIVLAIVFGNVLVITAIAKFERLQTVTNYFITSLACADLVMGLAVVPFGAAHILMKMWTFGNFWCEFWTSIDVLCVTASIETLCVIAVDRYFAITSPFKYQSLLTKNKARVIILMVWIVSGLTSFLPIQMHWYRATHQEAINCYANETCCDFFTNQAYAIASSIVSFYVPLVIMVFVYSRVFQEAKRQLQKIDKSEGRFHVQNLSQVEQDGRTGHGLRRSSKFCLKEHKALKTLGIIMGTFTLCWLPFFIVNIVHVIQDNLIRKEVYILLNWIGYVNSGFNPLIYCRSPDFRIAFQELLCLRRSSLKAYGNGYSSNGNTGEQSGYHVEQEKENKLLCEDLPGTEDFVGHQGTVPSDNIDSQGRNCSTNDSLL

- EC50 [1]: 2.2 µM (active)
SMILES: NC(=O)CC(NC(=O)Cc1ccc(Cl)cc1)c1ccc(NCCCN2CCCC2=O)c([N+](=O)[O-])c1 (centres undefined)

- IC50 (Ephrin type-A receptor 4): > 100 µM (not active)
- AC50 (Cytochrome P450 2C19): 28.2 µM (inconclusive)
- AC50 (Cytochrome P450 3A4): 22.4 µM (inconclusive)
- AC50 (Cytochrome P450 2D6): inconclusive
SMILES: COc1cc(NC(=O)c2ccc(COCC(F)(F)F)cc2)cc(OC)c1OC

- EC50 [2]: > 79.4 µM (inactive)
- EC50 [3]: > 79.4 µM (not active)
- EC50 [4]: > 79.4 µM (not active)
- EC50 [5]: 17.3 µM (active)
SMILES: CCN(CC)CCCNC(=O)CSc1c2c(nc3cc(Cl)ccc13)CCCC2

SMILES: CC1(C)CC(CCNS(=O)(=O)c2ccccc2)(c2ccccc2)CCO1 (centres undefined)
- AC50 (Escherichia coli [6]): 52.9 µM (active)
- AC50 (Escherichia coli [7]): 251 µM (active)

SMILES: C=CCN1C=C2C(=O)C(C)(OC(=O)c3ccc(OC)cc3)C(=O)C(c3ccco3)=C2C=C1CCCC (centres undefined)
- AC50 (Escherichia coli [6]): 22.3 µM (active)

SMILES: Cc1c(Nc2ncnc3c2cnn3-c2ccccc2)c(=O)n(-c2ccccc2)n1C
- AC50 (Escherichia coli [7]): 51.5 µM (active)

- AC50 (Trypsin): 5.18 µM (active)
- AC50 (CAAX prenyl protease 2): 1.15 µM (active)
SMILES: COC(=O)c1c(-c2ccc(OC)cc2)oc2ccc(-c3ccc(OC)nc3)cc12

SMILES: O=C(Nc1ccc(F)cc1)c1ccc(CN2CCCCC2)cc1
- IC50 (Tumor necrosis factor): > 20 µM (inactive)
- IC50 (HEK293): > 20 µM (inactive)

- AC50 (Cytochrome P450 2D6): inconclusive
SMILES: Cc1ccc(SCc2noc(C(=O)NCC3CCCO3)c2C(=O)O)cc1C (centres undefined)

- AC50 [8]: 0.622 µM (active)
SMILES: O=C1NC(=S)SC1=Cc1ccc(F)cc1

- IC50 (Caspase-3): > 99 µM (inactive)
- IC50 [10]: > 99 µM (inactive)
- IC50 [11]: > 99 µM (inactive)
SMILES: O=[N+]([O-])c1cc(/C=N/Nc2cc(N3CCOCC3)nc(N3CCOCC3)n2)cc2c1OCO2
- IC50 [9]: > 99 µM (inactive)

- IC50 (Caspase-3): 1.98 µM (active)
- IC50 [10]: 1.22 µM (active)
- IC50 [11]: 1.53 µM (active)
SMILES: CC(C)OC(=O)c1c(-c2ccc(Br)cc2)csc1NC(=O)C1CCC1
- IC50 [9]: 1.58 µM (active)

SMILES: CCn1cc(C(=O)O)c(=O)c2cnc(N3CCN(C(=S)Nc4ccccc4C(F)(F)F)CC3)nc21
- IC50 (Exodeoxyribonuclease V): > 39.5 µM (inactive)
- IC50 [12]: 3.33 µM (active)
